# Key:
# [1] = Inhibition of cell proliferation of mouse MC3T3E1 cells at 500 uM; format: functional, MC3T3-E1; parameters: scale not given: the % may be the effect or the level left
# [2] = Inhibition of cell proliferation of rat UMR106 cells at 500 uM; format: functional; parameters: scale not given: the % may be the effect or the level left
compound,measurement,setting,value
CCCCc1nc(Cl)c(CO)n1Cc1ccc(-c2ccccc2-c2nnn[n-]2)cc1.[K+] [LOSARTAN POTASSIUM],Activity,[1],10%
same,Activity,[2],10%
